The values below come from patent US6919350B2 (priority 1996, dated 2005).

Values joined by “and” are separate entries in the source; they are usually repeats but may differ in a detail not shown here. Identical values can stand only once. “Also recorded” adds a separate entry of the source. Like-named read-outs stand apart in the source and are kept apart here.

In one data set the target is T1, delta opioid receptor (Rattus norvegicus, UniProt P33533).
T1 construct: Rat (Sprague-Dawley) brain membranes were prepared; from tissue; host or cells: rat (Sprague-Dawley) brain membranes
T1 sequence (P33533 whole entry): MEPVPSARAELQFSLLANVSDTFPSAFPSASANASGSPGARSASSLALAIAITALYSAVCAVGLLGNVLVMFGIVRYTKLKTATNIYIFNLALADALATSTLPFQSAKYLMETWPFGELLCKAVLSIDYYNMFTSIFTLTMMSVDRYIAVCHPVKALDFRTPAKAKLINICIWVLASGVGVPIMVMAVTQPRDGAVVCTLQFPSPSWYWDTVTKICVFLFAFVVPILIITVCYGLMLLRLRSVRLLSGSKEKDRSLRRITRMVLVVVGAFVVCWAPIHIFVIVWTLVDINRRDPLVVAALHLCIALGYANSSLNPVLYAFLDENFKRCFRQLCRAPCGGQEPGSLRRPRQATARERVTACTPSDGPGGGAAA
As to the kind of experiment: Delta receptor binding in rat brain membranes (Delta Receptor IC50). As for the experimental part: The assay procedures used for such determinations of delta receptor activity are set out below.
Inhibition of receptor binding: Rat (Sprague-Dawley) brain membranes were prepared and binding assays were performed at 24° C. for 90 minutes as described by Chang, et al. (J. Biol. Chem. 254, 2610 (1979) and Mol. Pharmacol. 16, 91 (1979)) with a filtration method (GF/C filter). Delta receptor binding assays were performed with (^3H)-(+)-4-((α-R*)-α-((2S*,5R*)-4-Allyl-2,5-dimethyl-1-piperazinyl)-3-hydroxybenzyl)-N,N-diethylbenzamide (0.1 nM), having an activity of ˜48 Ci/mmole, or with ^3H-[D-Pen^2,D-Pen^5-(enkephalin)](^3H-DPDPE, 0.1 nM) having an activity of ˜50 Ci/mmole. Non-specific binding was determined in the presence of 1 mM of the unlabeled ligand. The potency of compounds in inhibiting the binding of (^3H)-(+)-4-((α-R*)-α-((2S*,5R*)-4-Allyl-2,5-dimethyl-1-piperazinyl)-3-hydroxy-benzyl)-N,N-diethylbenzamide or ^3H-DPDPE was determined as the concentration which reduced the binding of the labeled compounds by 50 percent (Delta Receptor IC50).

The target in data set [1] is T2, delta opioid receptor in the mouse vas deferens (Mus musculus, UniProt P32300).
T2 construct: Vasa deferentia were removed from mice; from tissue; host or cells: mouse vas deferens (isolated organ bath)
T2 sequence (P32300 whole entry): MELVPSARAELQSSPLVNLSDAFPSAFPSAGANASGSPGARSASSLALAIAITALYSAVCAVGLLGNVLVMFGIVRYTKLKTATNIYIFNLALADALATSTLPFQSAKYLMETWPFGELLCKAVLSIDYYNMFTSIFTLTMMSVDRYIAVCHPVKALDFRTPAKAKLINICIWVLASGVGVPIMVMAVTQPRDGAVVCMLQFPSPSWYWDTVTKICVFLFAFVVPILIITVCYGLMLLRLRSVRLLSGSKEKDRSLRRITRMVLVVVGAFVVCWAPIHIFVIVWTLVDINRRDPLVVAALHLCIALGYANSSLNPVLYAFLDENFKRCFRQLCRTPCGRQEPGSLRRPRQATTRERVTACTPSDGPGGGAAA
The experiment in a line: Electrically stimulated mouse vas deferens, delta opioid agonist potency (ED50).

The target in data set [2] is T2, delta opioid receptor in the mouse vas deferens. As to the kind of experiment: Antagonist potency (pA2, Schild analysis) in electrically stimulated mouse vas deferens. As for the experimental part: In vitro bioassays: Vasa deferentia were removed from mice and suspended between platinum electrodes with 0.5 g of tension in organ bath chambers containing a modified Krebs' buffer of the following composition (millimolar): NaCl, 118; KCl, 4.75; CaCl2, 2.6; KH2PO4, 1.20; NaHCO3, 24.5; and glucose, 11. The buffer was saturated with 95% O2/5% CO2 and kept at 37° C. Tissues were stimulated at supramaximal voltage with 10 Hz pulse trains for 400 msec.; train interval 10 seconds; and 0.5 msec pulse duration. […] The ED50 values were extrapolated from curves showing the dose concentration plotted against the response (Lord, et al., Nature 267, 495, (1977)).

The test system of data set [3] is rats. To be noted: rat, in vivo, iv.
The subject of data set [4] is rats. The experiment in a line: Tail-pinch analgesia during alfenta infusion with delta agonist (Example 14). Type of data set: in vivo, rat. The conditions noted are these: continuous i.v. infusion of alfenta and i.v. bolus of various doses. As for the experimental part: Analgesia was also assessed with a tail-pinch method at the same time points that blood was drawn.

For data set [5], the system named is rats. The experiment in a line: animal or person. To be noted: Rattus norvegicus, iv, read-out: ED50 to produce analgesia. The format is in vivo.
A further data set in a line: in vivo. The conditions noted are these: rat, iv.
Where [6] appears, read: rat brain membranes, radioligand 3H-[D-Pen2,D-Pen5]-(enkephalin) 0.1 nM, read-out: Delta Receptor IC50.
[7] abbreviates: inhibition of electrically induced muscle contractions, read-out: Mouse Vas Deferens ED50.
Setting [8] is: blockade of inhibitory effect of [D-Ala2,D-Leu5] enkephalin (footnote b).

Consider “3-((αR)-α-((2S,5S)-4-Allyl-2,5-dimethyl-1-piperazinyl)benzyl)phenol and 3-((αS)-α-((2S,5S)-4-Allyl-2,5-dimethyl-1-piperazinyl)benzyl)phenol [Compound 9]”, for which the IC50 at delta opioid receptor (setting [6]) is 1.5 nM. For the same molecule, the EC50 in data set [1] (setting [7]) is 450 nM.
The corresponding values for `C=CCN1[C@H](C)CN(C(c2ccc(C(=O)N(CC)CC)cc2)c2cccc(O)c2)C[C@@H]1C` (mixture of isomers) [Compound 23, (±)-cis-4-(α-(4-Allyl-3,5-dimethyl-1-piperazinyl)-3-hydroxybenzyl)-N,N-diethylbenzamide] are 3.3 nM and 42 nM.
As to `C=CCN1C[C@H](C)N([C@@H](c2cccc(O)c2)c2cccc(C(N)=O)c2)C[C@H]1C` (relative stereo) [Compound 6, (±)-3-((αR*)-α-((2S*,5R*)-4-Allyl-2,5-dimethyl-1-piperazinyl)-3-hydroxybenzyl)-benzamide], the IC50 at delta opioid receptor (setting [6]) is 4 nM. In data set [1] (setting [7]), the EC50 worked out at 25 nM.
Usually melting point stands for the temperature, or range, at which the solid turns liquid. With `CCN(CC)C(=O)c1ccc([C@H](c2cccc(O)c2)N2C[C@H](C)N(C)C[C@H]2C)cc1` (relative stereo) [Compound 10, (±)-N,N-diethyl-4-((αR*)-3-hydroxy-α-((2R*,5S*)-2,4,5-trimethyl-1-piperazinyl)benzyl)benzamide], the melting point was in the range of 220 to 221 °C. In addition, the IC50 at delta opioid receptor (setting [6]) is 1.1 nM. Also, the EC50 in data set [1] (setting [7]) is 90 nM.
The term Kb denotes the affinity of an antagonist, worked out from how it opposes an agonist. On to `C/C=C\CN1[C@H](C)CN(C(c2ccc(C(=O)N(CC)CC)cc2)c2cccc(O)c2)C[C@@H]1C` (relative stereo) [Compound 17, cis-4-(α-(4-((Z)-2-butenyl)-3,5-dimethyl-1-piperazinyl)-3-hydroxybenzyl)-N,N-diethylbenzamide], for which the IC50 on delta opioid receptor (setting [6]) came out at 1.5 nM. Further, the antagonist dissociation constant (Kb) in data set [2] (blockade of inhibitory effect of (±)-4-((α-R*)-α-((2S*,5R*)-4-allyl-2,5-dimethyl-1-piperazinyl)-3-hydroxybenzyl)-N,N-diethylbenzamide (footnote c)) was 6.31 nM.
Take `C=CCN1C[C@@H](C)N([C@H](c2ccc(S(C)(=O)=O)cc2)c2cccc(O)c2)C[C@@H]1C` (relative stereo) [Compound 18, (±)-3-((αR*)-α-((2R*,5S*)-4-allyl-2,5-dimethyl-1-piperazinyl)-4-(methylsulfonyl)benzyl)phenol]: the IC50 on delta opioid receptor (setting [6]) worked out at 1.3 nM. The EC50 in data set [1] (setting [7]) was 250 nM.
For `C=CCN1C[C@@H](C)N([C@H](c2ccc(S(=O)(=O)N(C)C)cc2)c2cccc(O)c2)C[C@@H]1C` (relative stereo) [Compound 19, (±)-4-((αR*)-α-((2R*,5S*)-4-Allyl-2,5-dimethyl-1-piperazinyl)-3-hydroxybenzyl)-N,N-dimethylbenzenesulfonamide], in that order: 2.6 nM and 37 nM.
For `C=CCN1C[C@H](C)N([C@H](c2ccccc2)c2cccc(O)c2)C[C@H]1C` (relative stereo) [Compound 20, (±)-3-((αR*)-α-((2S*,5R*)-4-Allyl-2,5-dimethyl-1-piperazinyl)benzyl)phenol], in that order: 1.3 nM and 78 nM.
As to `C=CCN1C[C@H](C)N([C@H](c2ccc(C(N)=O)cc2)c2cccc(O)c2)C[C@H]1C` (relative stereo) [Compound 21, (±)-4-((αR*)-α-((2S*,5R*)-4-Allyl-2,5-dimethyl-1-piperazinyl)-3-hydroxybenzyl)benzamide], the IC50 at delta opioid receptor (setting [6]) was 1.6 nM. Also, the EC50 in data set [1] (setting [7]) is 44 nM.
The corresponding values for `CCN(CC)C(=O)c1ccc([C@H](c2cccc(O)c2)N2C[C@H](C)NC[C@H]2C)cc1` (relative stereo) [Compound 22, (±)-4-((αR*)-α-((2R*,5S*)-2,5-Dimethyl-1-piperazinyl)-3-hydroxybenzyl)-N,N-diethylbenzamide] are 0.7 nM and 4400 nM.
In the case of `C=CCN1C[C@@H](C)N([C@H](c2ccc(C(=O)N(CC)CC)cc2)c2cccc(O)c2)C[C@H]1C` (stereo in doubt) [Compound 1, (−)-4-((αR)-α-((2R,5R)-4-allyl-2,5-dimethyl-1-piperazinyl)-3-hydroxybenzyl)-N,N-diethylbenzamide], at delta opioid receptor, the IC50 amounted to 2 nM. Moreover, the EC50 in data set [1] was 43 nM.
On to `C=CCN1C[C@H](C)N([C@H](c2ccc(C(=O)N(CC)CC)cc2)c2cccc(O)c2)C[C@H]1C` [BW373U86, (+)-4-((αR)-α-((2S,5R)-4-allyl-2,5-dimethyl-1-piperazinyl)-3-hydroxybenzyl)-N,N-diethylbenzamide], for which, in the data set on rats [3], the “effect on alfenta-induced respiratory depression (blood pCO2)” value was “dose dependently reduced the level of pCO2; also recorded: blocks the respiratory depression”. Moreover, the “effect on analgesia induced by alfenta (tail-pinch)” value with rats [4] was “did not significantly affect the analgesia”.
Take `C=CCN1C[C@@H](C)N([C@@H](c2ccc(C(=O)N(CC)CC)cc2)c2cccc(O)c2)C[C@H]1C` [Compound 2, (−)-4-((αS)-α-((2R,5R)-4-Allyl-2,5-dimethyl-1-piperazinyl)-3-hydroxybenzyl)-N,N-diethylbenzamide]: at delta opioid receptor, the IC50 is 1 nM.
For `CCCN1C[C@@H](C)N([C@@H](c2ccc(C(=O)N(CC)CC)cc2)c2cccc(O)c2)C[C@H]1C` [Compound 4, (−)-4-((αS)-α-((2R,5R)-2,5-Dimethyl-4-propyl-1-piperazinyl)-3-hydroxybenzyl)-N,N-diethylbenzamide], the EC50 in data set [1] (setting [7]) was more than 1000 nM.
For the molecule `C=CCN1C[C@H](C)N([C@H](c2ccc(C(N)=O)cc2)c2cccc(O)c2)C[C@@H]1C` [Compound 5], the IC50 at delta opioid receptor (setting [6]) stood at 1.6 nM. Besides, the EC50 in data set [1] (setting [7]) came to 260 nM.
The corresponding values for `CCN(CC)C(=O)c1ccc([C@H](c2cccc(O)c2)N2C[C@@H](C)NC[C@H]2C)cc1` [Compound 7, N,N-Diethyl-4-((αR)-3-hydroxy-α-((2R,5R)-2,5-dimethyl-1-piperazinyl)benzyl)benzamide] are 1.1 nM and 560 nM.
For the molecule `C=CCN1C[C@H](C)N([C@H](c2ccc(C(=O)N(C)CC)cc2)c2cccc(O)c2)C[C@@H]1C` [Compound 8, 4-((αR)-α-((2S,5S)-4-Allyl-2,5-dimethyl-1-piperazinyl)-3-hydroxybenzyl)-N-ethyl-N-methylbenzamide], the IC50 at delta opioid receptor (setting [6]) is 0.86 nM. In data set [1] (setting [7]), the EC50 was determined as 30 nM.
For `C[C@H]1CN([C@H](c2ccc(C(=O)N3CCCCC3)cc2)c2cccc(O)c2)[C@@H](C)CN1C` [Compound 12, 3-((αR)-4-(piperidinocarbonyl)-α-((2S,5S)-2,4,5-trimethyl-1-piperazinyl)benzyl)phenol], in that order: 1.2 nM and 250 nM.
`C[C@H]1CN([C@H](c2ccc(C(=O)N3CCCC3)cc2)c2cccc(O)c2)[C@@H](C)CN1C` [Compound 13, 3-((αR)-4-(1-pyrrolidinylcarbonyl)-α-((2S,5S)-2,4,5-trimethyl-1-piperazinyl)benzyl)phenol]: the IC50 at delta opioid receptor (setting [6]) was 0.3 nM and 0.8 nM. For the same molecule, the EC50 in data set [1] (setting [7]) was determined as 200 nM.
For `CCN(CC)C(=O)c1ccc([C@@H](c2cccc(O)c2)N2C[C@H](C)N(C)C[C@@H]2C)cc1` [Compound 14, (+)N,N-Diethyl-4-(3-hydroxy-(αS)-α-((2S,5S)-2,4,5-trimethyl-1-piperazinyl)benzyl)-benzamide], the IC50 at delta opioid receptor (setting [6]) is 2 nM. In addition, the antagonist dissociation constant (Kb) in data set [2] (setting [8]) was 79.4 nM.
On to `CCN(CC)C(=O)c1ccc([C@H](c2cccc(O)c2)N2C[C@@H](C)N(C)C[C@H]2C)cc1` [Compound 15, N,N-diethyl-4-(3-hydroxy-(αR)-α-((2R,5R)-2,4,5-trimethyl-1-piperazinyl)benzyl)benzamide], for which, on delta opioid receptor (setting [6]), the IC50 stood at 2.8 nM.
`CCN(C)C(=O)c1ccc([C@H](c2cccc(O)c2)N2C[C@H](C)N(C)C[C@@H]2C)cc1` [Compound 16, N-ethyl-4-((αR)-3-hydroxy-α-((2S,5S)-2,4,5-trimethyl-1-piperazinyl)benzyl)-N-methylbenzamide]: the IC50 on delta opioid receptor (setting [6]) worked out at 3.1 nM. The same molecule showed an antagonist equilibrium constant (Kb) in data set [2] (setting [8]) of 63.1 nM.
Usually ED50 stands for the dose that gives a 50% effect, or the effect in half of the subjects. On to `C=CCN1C[C@H](C)N([C@@H](c2cccc(O)c2)c2cccc(C(=O)N(C)c3cccc(F)c3)c2)C[C@H]1C` [Compound 3290W93], for which the results for the ED50 with rats [5] and in “in vivo” were 0.08 mg/kg and 2 mg/kg, respectively.
Turning to “cis-4-(α-(3,5-Dimethyl-4-(methylallyl)-1-piperazinyl)-3-hydroxybenzyl)-N,N-diethylbenzamide [Compound 24]”, the EC50 in data set [1] (setting [7]) amounted to 20 nM.
